Assay: molar heat capacity at constant pressure
Details: 101.33 kPa, Crystal 2

CC12CC3CC(C1)CC(C)(C3)C2 [1,3-dimethyladamantane]
Details	molar heat capacity at constant pressure [J/K/mol]
8.24 K	2.062
8.72 K	2.425
9.2 K	2.838
9.68 K	3.291
10.16 K	3.758
10.73 K	4.336
11.38 K	5.1
12.04 K	5.875
12.71 K	6.75
13.36 K	7.626
14.03 K	8.543
14.69 K	9.462
15.35 K	10.41
16.02 K	11.41
16.68 K	12.45
17.35 K	13.38
18.02 K	14.36
18.7 K	15.27
19.36 K	16.17
20.03 K	17.19
20.92 K	18.43
22.01 K	19.87
23.09 K	21.29
24.18 K	22.59
25.26 K	23.98
26.35 K	25.2
27.44 K	26.35
30.7 K	29.56
31.79 K	30.56
32.87 K	31.44
33.96 K	32.41
35.04 K	33.24
36.12 K	34.11
37.2 K	34.83
38.29 K	35.57
39.37 K	36.35
40.44 K	37.09
41.52 K	37.79
42.59 K	38.45
43.67 K	39.15
44.74 K	39.94
45.82 K	40.58
46.91 K	41.26
49.08 K	42.53
50.15 K	43.17
51.21 K	43.97
52.28 K	44.55
53.34 K	45.28
54.4 K	45.93
55.46 K	46.84
56.52 K	47.67
58.46 K	49.49
60.51 K	51.1
62.53 K	52.46
63 K	52.93
63.91 K	53.57
64.83 K	54.06
65.75 K	54.71
66.66 K	55.08
67.58 K	55.66
68.49 K	56.24
69.41 K	57.05
71.4 K	57.87
73.43 K	58.84
75.49 K	59.92
77.45 K	60.94
79.6 K	62.15
81.55 K	63.11
82.51 K	63.18
83.54 K	64.04
84.58 K	64.38
85.62 K	65.28
86.66 K	66.25
87.69 K	66.5
88.73 K	67.15
89.76 K	68.17
90.79 K	68.78
91.82 K	69.62
92.85 K	70.65
93.88 K	71.07
94.91 K	71.83
95.93 K	72.84
96.96 K	73.52
97.98 K	74.02
99.01 K	74.65
100.04 K	75.78
101.06 K	77.14
102.08 K	77.29
103.1 K	78.16
104.13 K	78.65
105.15 K	79.24
106.17 K	79.77
107.18 K	80.75
108.2 K	81.19
109.21 K	82.31
110.22 K	83.3
111.24 K	83.76
112.25 K	84.74
113.26 K	85.56
114.27 K	86.06
115.29 K	86.71
116.3 K	87.61
117.31 K	88.53
118.32 K	89.31
119.33 K	90.06
120.34 K	90.8
121.35 K	91.66
122.36 K	92.56
123.36 K	93.09
124.37 K	94.23
125.38 K	94.72
126.39 K	95.77
127.4 K	96.32
128.4 K	97.15
129.4 K	97.61
130.4 K	98.84
131.41 K	99.23
132.41 K	99.74
133.41 K	100.92
135.41 K	102.12
136.41 K	102.85
137.41 K	103.66
138.41 K	104.15
139.41 K	105.02
140.41 K	106
141.4 K	106.56
142.4 K	107.72
143.4 K	107.89
144.4 K	108.44
145.37 K	109.47
146.37 K	110.32
147.36 K	111.05
148.36 K	112.04
149.35 K	112.85
150.34 K	113.58
151.33 K	114.44
153.32 K	115.43
154.31 K	116.66
155.3 K	117.21
156.29 K	118.03
157.28 K	118.57
158.26 K	119.55
159.25 K	119.81
160.24 K	120.34
161.21 K	122.14
162.2 K	123.06
163.18 K	123.69

— the NIST ThermoML archive (doi:10.1016/j.jct.2004.06.009)
